Source: publication PMC6678097, “Machilin A Inhibits Tumor Growth and Macrophage M2 Polarization Through the Reduction of Lactic Acid” (Cancers, 2019)

Key:
[1] = biological target: LDHB (Homo sapiens, UniProt P07195); assay: LDHB activity (data not shown); type: biochemical; details: concentrations of up to 500 μM
[2] = biological target: T1, purified recombinant human LDHA (rhLDHA) (Homo sapiens, UniProt P00338); assay: NADH binding assay (LDHA binding to Cibacron Blue 3GA agarose); details: machilin A 10 and 100 μM; NADH positive control
T1 construct: made in house
Method: An NADH binding assay was performed as described previously. The NADH binding ability of LDHA was determined by measuring the affinity of LDHA to agarose-immobilized Cibacron Blue 3GA, which resembles NADH. Then, 400 ng of purified recombinant human LDHA (rhLDHA) was incubated with NADH or MA, followed by incubation with 30 µL of Cibacron Blue agarose at 4 °C for 2 h. After a washing step with 20 mM Tris-HCl (pH 8.6), LDHA bound to beads was eluted in PBS using a sodium dodecyl sulfate (SDS) gel running buffer and was then subjected to–SDS-polyacrylamide gel electrophoresis (SDS-PAGE) and western blotting. Standardized amounts of protein were used in each reaction.

[3] = test system: HT29; assay: Cell viability, MTT assay; type: cell-based, human
Method: (§1) Human colon cancer cells (WiDr, DLD-1, RKO, and HT29) and murine Lewis lung carcinoma (LLC) cells were purchased from the American Type Culture Collection (Manassas, VA, USA). Human breast cancer MCF7 cells, human hepatocellular carcinoma cells (Huh-7, HepG2, and Hep3B), and human lung cancer cells (HCC-95 and NCI-H1793) were provided by the Korean Cell Line Bank (Seoul, Korea). The HCC-95 and NCI-H1793 cells were grown in a Roswell park memorial institute medium (RPMI) 1640 medium (HyClone^TM; GE Healthcare, Chicago, IL, USA). All other cells were grown in Dulbecco’s modified eagle medium (DMEM) supplemented with L-glutamine (200 mg/L), 10% (v/v) heat-inactivated fetal bovine serum (FBS; Sigma-Aldrich, St. Louis, MO, USA), and antibiotics (100 U/mL penicillin and 100 μg/mL streptomycin; Thermo Fisher Scientific, Waltham, MA, USA) in a humidified incubator at 37 °C and with 5% CO2 before the experiments. For induction of hypoxia condition (1% oxygen), the cells were cultured were cultured in the mixture of 94% nitrogen and 5% CO2/air at 37 °C for 24 h in cell culture incubator. Cytotoxicity of MA was evaluated using an MTT assay. Briefly, cells were incubated in 24-well plates with specified concentrations of MA for 24 or 48 h. Then, MTT solution (2.0 mg/mL) was added to each well. After 4 h of incubation at 37 °C and 5% CO2 in a cell culture incubator, the conditioned media were removed, and the amount of formazan crystals formed in living cells was estimated by measuring the absorbance at 540 nm using a microplate reader (Spectramax M2; Molecular Devices, CA, USA). The respective percentages of living cells were compared with a control treatment.

[4] = test system: Hep3B; assay: Cell viability, MTT assay; type: cell-based, human
Method: as §1

[5] = test system: DLD-1; assay: Cell viability, MTT assay; type: cell-based; details: Homo sapiens, normoxic
Method: as §1

[6] = test system: HCC-95; assay: Cell viability, MTT assay; type: cell-based; details: Homo sapiens, HCC95, normoxic
Method: as §1

[7] = test system: HepG2; assay: Cell viability, MTT assay; type: cell-based; details: Homo sapiens, normoxic
Method: as §1

[8] = test system: Huh7; assay: Cell viability, MTT assay; type: cell-based; details: Homo sapiens, Huh-7, normoxic
Method: as §1

[9] = test system: MCF-7; assay: Cell viability, MTT assay; type: cell-based; details: Homo sapiens, MCF7, normoxic
Method: as §1

[10] = test system: NCI-H1793; assay: Cell viability, MTT assay; type: cell-based; details: Homo sapiens, normoxic
Method: as §1

[11] = test system: RKO; assay: Cell viability, MTT assay; type: cell-based; details: Homo sapiens, normoxic
Method: as §1

[12] = test system: WiDr; assay: Cell viability, MTT assay; type: cell-based; details: Homo sapiens, normoxic
Method: as §1

[13] = In vivo toxicity to liver and kidney (serum AST, ALT, creatinine, BUN); details: mice with allograft tumors
Method: LLC and CT26 cells were suspended separately in PBS (5 × 10^5 cells/100 µL PBS) and inoculated in subcutaneously on the back of 7-week-old C57BL/6 mice and BALB/c mice respectively (Orient Bio Inc., Seongnam, Korea; n = 7). One day after the inoculation with tumor cells, mice of the control group (n = 7) were intraperitoneally administrated 100 µL of PBS per day for 18 days. Each of the MA-treated mice were intraperitoneally administrated 0.02, 0.2, or 1 mg MA, respectively, in 100 µL PBS per 20 g body weight, each day for 18 days. All mice were euthanized 19 days after inoculation with the tumor cells, and the tumors were excised and weighed. Length (l) and width (w) of each tumor were measured using a caliper, and the respective volume (V) was calculated according to the formula V = [(l × w^2)/2]. Tumors were immediately removed from euthanized mice and prepared for histological examinations. To test liver and kidney toxicity of MA, at the end of the in vivo allograft experiment blood was collected from each mouse and serum was separated. Biochemical analyses of aspartate aminotransferase (AST), alanine aminotransferase (ALT), creatinine, and blood urea nitrogen (BUN) were performed using a commercial service (Green Cross Co., Yongin, Korea). […]

[14] = hypoxic and normoxic conditions, 48 h

Chain of LDHB (P07195 whole entry, species assumed): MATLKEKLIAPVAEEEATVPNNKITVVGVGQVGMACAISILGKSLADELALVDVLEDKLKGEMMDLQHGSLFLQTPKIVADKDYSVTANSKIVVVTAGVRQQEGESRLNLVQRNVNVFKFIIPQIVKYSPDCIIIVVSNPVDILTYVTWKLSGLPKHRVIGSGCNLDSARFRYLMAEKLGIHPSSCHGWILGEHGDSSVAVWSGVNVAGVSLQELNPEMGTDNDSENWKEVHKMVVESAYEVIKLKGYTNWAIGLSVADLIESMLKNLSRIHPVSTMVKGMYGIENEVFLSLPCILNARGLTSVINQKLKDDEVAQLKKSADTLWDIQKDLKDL

C[C@H](Cc1ccc2c(c1)OCO2)[C@@H](C)Cc1ccc2c(c1)OCO2 [MA, bis(3,4-methylenedioxy)-8,8’-lignan]
effect on LDHB activity [1]: did not affect LDHB activity
LDHA binding to Cibacron Blue Agarose beads (NADH mimic) [2]: prohibited LDHA binding
IC50 ([3]; Homo sapiens, HT-29, normoxic): 107 ± 4.66 µM
growth of cells [3, 14]: substantially inhibited the growth
IC50 ([4]; Homo sapiens, normoxic): 140 ± 8.55 µM
growth of cells [4, 14]: substantially inhibited the growth
IC50 [5]: 423 ± 17.6 µM
IC50 [6]: 228 ± 13.9 µM
IC50 [7]: 156 ± 23.2 µM
IC50 [8]: 198 ± 26.7 µM
IC50 [9]: 217 ± 12.9 µM
IC50 [10]: 96.7 ± 5.32 µM
IC50 [11]: 192 ± 15.2 µM
IC50 [12]: 17.2 ± 5.75 µM
in vivo toxicity to liver and kidney [13]: no significant toxic effect
